Experimental data from patent publication US20180207249A1, “METHOD AND VACCINE COMPRISING COPOLYMER 1 FOR TREATMENT OF PSYCHIATRIC DISORDERS” (YEDA RESEARCH AND DEVELOPMENT CO. LTD., priority 2003, published 2018).

Tests used:
Assay type in all cases: in vivo, mouse
[1] = tested on: mice injected with a psychotomimetic drug; assay: Social behavior test; settings: vaccinated mice vs controls; data not shown
[2] = tested on: C57BL/6J mice injected with MK-801 or AMPH; assay: Morris water maze (MWM) spatial learning/memory task after psychotomimetic drug; settings: C57BL/6J mice immunized 1 week before MK-801
Experimental: (§1) (iii) Immunization. Each animal was injected with a total of 100 μg of Cop-1 emulsified in an equal volume of complete Freund's adjuvant (CPA) containing 5 mg/ml of Mycobacteria H37 RA (Difco). The emulsion, in a total volume of 0.1 mL, was injected into the flank 1 week before the mouse was first injected with a psychotomimetic drug. Control mice were injected with an equal volume of phosphate-buffered saline (PBS) emulsified in CFA.
(vi) Drug solutions. Fresh solutions of dizocilpine maleate (MK-801; Sigma-Aidrich) were prepared in physiological saline (0.9% NaCl in sterile distilled water) for each batch of mice. Physiological saline was also used as a vehicle for D-amphetamine sulfate (AMPH: Sigma). MK-801. (0.1 mg/kg) or AMPH (2.5 mg/kg) or sahne was injected i.p., in a total volume of 5 ml per kg of body weight. Mice were injected with MK-801, AMPH, or vehicle 15 min before being subjected to behavioral tests.
(vii) Morris water maze (MWM) behavioral test. Spatial learning/memory was assessed by performance on a hippocampal-dependent visuospatial learning task in the MWM. Mice were given four trials per day, for four consecutive days, to find a hidden platform located 1.5 cm below the water surface in a pool 1.4 m in diameter. Within the testing room only distal visuo-spatial cues were available to the mice for location of the submerged platform. The escape latency, i.e., the time required by the mouse to find and climb onto the platform, was recorded for up to 60 s. Each mouse was allowed to remain on the platform for 30 s, and was then moved from the maze to its home cage. […] The inter-trial interval was 30 s. On day 5, the platform was removed from the pool, and each mouse was tested by a probe trial for 60 s. On days 6-7 the platform was placed at the opposite, location, and the mouse was retrained in four sessions. Data were recorded by using an EthoVision automated tracking system (Noldus Information Technology, Wageningen, The Netherlands). […]

[3] = tested on: male C57B1/6J mice exposed to the odor of a predator; assay: Behavioral adaptation to psychological stress (predator odor; EPM and ASR cut-off behavioral criteria); settings: single 10-min exposure to odor of a predator, PBS/CFA control 40.8%, P<0.05
Experimental: as §1
(ix) Induction of psychological stress. Mice in the experimental groups were exposed for 10 minutes to thoroughly soiled eat litter (used by a cat for 2 days and sifted for faeces). Control (WT) mice were exposed for the same time to unused litter. […]
Behavior on the EPM was recorded using EthoVision programs (Noldus) that recorded the location of the mouse over the 5-minute test period. […]
Five behavioral parameters were assessed: (1) time spent in the open arms; (2) time spent in the closed arms; (3) number of entries into open arms; (4) number of entries into closed arms; (5) total number of entries into all arms. Mice were recorded as having entered an open or closed arm only when all four paws had passed over the dividing line between open and closed arms. […]
(xi) Acoustic startle response (ASR). […] The ASR and pre-pulse inhibition were measured using two ventilated startle chambers (SR-LAB system, San Diego Instruments, San Diego, Calif.). […]

Substance: Copolymer 1 [Cop-1]
- Communicative behavior in social behavior test [1]: better communicative behavior than the controls
- MWM extinction phase, time spent in training quadrant after MK-801 [2]: behaved similarly to WT mice
- Prevalence of maladaptation (behavioral changes) after predator odor [3]: 14.8%
